Patent US20140134230A1, “TRANSDERMAL THERAPEUTIC SYSTEM” (priority 2005, published 2014)

What was measured:
[1] = Rivastigmine's biopharmaceutical properties in humans; assay type: in vivo
Text: Little has been published in detail on rivastigmine's biopharmaceutical properties in humans. […] It is subject to pre-systemic and systemic metabolism.

[2] = Saturation solubility of rivastigmine free base in the silicone adhesive; assay type: physicochemical

## CCN(C)C(=O)Oc1cccc([C@H](C)N(C)C)c1 [rivastigmine]
[1]
  absorption: rapidly and completely absorbed
  metabolism: metabolised mainly through hydrolysis by esterases
[2]
  saturation solubility in the silicone adhesive: about 5 %-wt.
